Experimental findings from patent US20210221862A1, “APPLICATION OF PEDF-DERIVED SHORT PEPTIDES IN THE TREATMENT OF OSTEOARTHRITIS” (BRIM Biotechnology, Inc., priority 2018, published 2021) are described below.

Experiment [1] deals with chondrogenic cells in damaged articular cartilage. Briefly: In vivo DNA synthesis: BrdU / Sox9 staining of damaged articular cartilage, MIA-induced OA. Set-up: species or system rat. As to the method:
(§1) Adult 10-wk-old male Sprague-Dawley rats (initial body wt=312±11 g) were anesthetized by an intraperitoneal injection of Xylazine (10 mg/kg). After that, their right knees were each treated with a single intraarticular injection of 1 mg of MIA in 25 μl of sterile saline. The solution was injected through the patellar ligament using a 27 G needle with the leg flexed at a 90° angle at the knee. Seven days after MIA injection, the […] were randomly assigned to different experimental groups (n 3, each group). For treatments of the rat model of MIA-induced OA, PDSP peptide was dissolved in 25 μl of 1% HA, and the peptide solvent DMSO was used as a vehicle/HA control.
For detection of cell proliferation, BrdU was reconstituted in DMSO as stock (80 mM). […] DNA synthesis was assessed by BrdU labeling, as detected with anti-BrdU antibodies.
To detect DNA synthesis in vivo, paraffin-embedded joint specimens were deparaffinized in xylene and rehydrated in a graded series of ethanol and then exposed to 1 N HCl at RT for 1 h for subsequent immunohistochemistry. […] Images were captured using a Zeiss epifluorescence microscope with a CCD camera and measured from 20 randomly-selected areas in each sample, and blind quantification was performed in triplicate by manually counting within each section. […]

Experiment [2] has as its system rat model of MIA-induced OA. Description: MIA-induced hind paw weight-bearing shift (incapacitance tester), rat OA model. It counts as in vivo. Conditions: for MIA-induced weight shift (hind paw weight-bearing): vehicle/HA 75.9±4.7%. As to the method:
as §1
Changes in hind paw weight distributions between the right (osteoarthritic) and left (contralateral control) limbs were used as an index of joint discomfort in the osteoarthritic knee. An incapacitance tester was employed for determination of hind paw weight distributions, as previously described (Bove et al., Weight bearing as a measure of disease progression and efficacy of anti-inflammatory compounds in a model of monosodium iodoacetate-induced osteoarthritis. Osteoarth Cart., 2003; 11:821-830). Rats were placed in an angled plexiglass chamber positioned so that each hind paw rested on a separate force plate. The force exerted by each hind limb (measured in grams) is averaged over a 5-s period. Each data point is the mean of three, 5-s readings. The change in hind paw weight distribution was calculated by determining the difference in the amounts of weights (g) exerted on the tester between the left and right limbs. Results are presented as either the difference in weight bearing between the left (contralateral control) limb and right (osteoarthritic) limbs or as the percent difference between the baseline reading and the post-treatment reading, as calculated using the following equation:
(1−(mean Δweight of treated group/mean Δ weight of vehicle group))×(100)
To investigate whether PDSP (PEDF short peptide) has antinociceptive effects to ameliorate the joint discomfort, 10-wk-old male Sprague-Dawley rats (n=15) were subjected to intraarticular injection of 1 mg of MIA (dissolved in 25 μl of sterile saline) into right joint to induce a maximum degree of weight shift (from right to left leg) and then used to investigate the pharmacologic response of the 29-mer PDSP (SEQ ID NO:1). […]
In the animal study, the 29-mer PDSP variants were formulated into 1% HA to final a concentration of 0.2 mM and then applied by way of a single intraarticular injection each on day 1 and day 8 post-MIA injection. After 29-mer variant treatments for 14 days, the antinociceptive effects of the 29-mer variants (n=3 per group) on MIA-induced hind paw weight-bearing shifts were evaluated with an incapacitance tester.

The test system of another experiment is rat MSCs. Description: Chondrogenic differentiation of MSCs, GAG by Alcian blue staining. The experiment is classed as cell-based. The note with it: 10 μM peptide in medium with dexamethasone and TGF-β3, 21 days; DMSO control 0.15±0.024. As to the method:
Adult 8-wk-old male Sprague-Dawley rats were anesthetized with an intraperitoneal injection of Xylazine (10 mg/kg). After that, their femurs were aseptically harvested, washed in a mixture of PBS and antibiotics for 5 minutes, and then they were dissected off of all soft tissue, transected at their epiphysis, and their marrow cavity rinsed repeatedly with a mixture of heparin (AGGLUTEX INJ 5000 U/ML 5 ML; working conc. 100 U/ml) and DMEM. The harvested cells were collected, dispersed by pipetting, and centrifuged at 1000×g for 5 minutes at RT. Cell pellets were resuspended with DMEM, and then the cell suspension was transferred to a 15-ml centrifuge tube containing 5 ml of Percoll (1.073 g/ml). […]
For Alcian blue staining, cultures were rinsed twice with PBS, fixed in 4% (w/v) paraformaldehyde for 15 min, and then incubated in 1% (w/v) Alcian blue 8-GX (Sigma) in 0.1 N HCl (pH 1.0) overnight as previously described (Ji Y. H. et al., Quantitative proteomics analysis of chondrogenic differentiation of C3H10T1/2 mesenchymal stem cells by iTRAQ labeling coupled with on-line two-dimensional LC/MS/MS, Mol. Cell. Proteom., 2010, 9(3): 550-564.). For semi-quantitative analysis, Alcian blue-stained cultures were extracted with 6 M guanidine HCl for 2 h at room temperature. The absorption of the extracted dye was measured at 650 nm in a microplate reader (Bio-Rad). […]

Experiment [3] has as its system MIA-damaged articular cartilage. Description: Histological examination (H&E) of MIA-damaged articular cartilage. It counts as in vivo, rat. The note with it: 29-mer/HA from day 8 post-MIA for 2 weeks. As to the method:
as §1
The knee joints were dissected, and the surrounding soft tissue was removed. Specimens were fixed in a 4% paraformaldehyde (PFA) solution and then were decalcified with Shandon TBD-2 decalcifier (Thermo Scientific, Logan, Utah). The joints were then sectioned mid-sagittally and embedded in paraffin blocks. Sections (5 μm in thickness) were longitudinally cut and stained with hematoxylin and eosin (H&E) or used for immunohistochemical examination. 20 sections per knee were carefully prepared so as to include the most severely degenerated area.
It has been established that rat knee joints injected with MIA can result in extensive chondrocyte degeneration/necrosis at day 7 post-MIA treatment in a rapid and reproducible manner. […]

As for “SLGAEQRTESIIHRALYYDLISSPDIHGT (in 1% hyaluronic acid; listed as Homo sapiens) [29-mer, PEDF-derived short peptide, human PEDF residues 93-121]”, in experiment [1] (0.2 mM 29-mer/HA, dual immunostaining, FIG. 5A), the “Sox9 immunostaining of BrdU-positive cells” value was “BrdU-positive cells were also Sox9 positive”. Besides, in experiment [1] (0.2 mM peptide in 1% HA, 14 days treatment, vehicle/HA 7±3), the “BrdU-positive cells per field of cartilage region” value is 346±57. For the same sequence, the “MIA-induced weight shift (hind paw weight-bearing)” value in experiment [2] (group II: 0.2 mM 29-mer in 1% HA, intraarticular on day 1, 4, 8, 12 (twice per week), 14 days) is 63.3±12.5%; in experiment [2] (group III: 29-mer alone (bolus, without HA), intraarticular day 1, 4, 8, 12) it was 77.2±1.2%; in experiment [2] (group IV: 29-mer/HA, intraarticular once on day 1 and day 8 (once per week), 14 days) it was 58.1±4.6%. Also, the “MIA-induced hind paw weight-bearing shift” value in experiment [2] (variant study (FIG. 4): 0.2 mM peptide in 1% HA, intraarticular day 1 and day 8, after 14 days, vehicle/HA 47.1±3.7%) came to 22.0±0.66%. In the experiment with rat MSCs, the “Alcian blue-positive material (GAG) at OD 650 nm” value was found to be 0.34±0.013. The “Chondrocytes in cartilage, H&E histology” value in experiment [3] (vehicle/HA: chondrocytes lost from superficial zone) is reported as “large numbers of newly generated chondrocytes throughout the cartilage”. For the same sequence, in experiment [3] (vehicle/HA: loss of cartilage integrity), the “Cartilage integrity, H&E histology” value is on record as “good surface continuity”.
